Data on 1 compound can be found in US6998470B1, “Process for large-scale isolation and purification of hypothalamic inhibitory factor” (Bion, Inc., priority 1997, dated 2006).

In assay [1] the target is T1, monoclonal antibody 26-10 (Mus musculus, UniProt P01631).
T1 construct: fused on or other part: Heavy chain of mAb 26-10 (A/J mouse), which forms most of the digoxin/ouabain pocket
Briefly: 125I competition plate assay using goat-anti-mouse IgG Fab to bind the antibodies. More on the design: species or system mice. Conditions: read-out: relative affinity (IC50); binding to anti-digoxin mAb 26-10. An excerpt:
(§1) Several available anti-digoxin antibodies were studied to determine relative affinity for ouabain.
Monoclonal antidigoxin antibody 26-10 was obtained from A/J mice immunized with a digoxin-human serum albumin (Dig-HSA) conjugate and spleen cells were fused with the non-secreting murine myeloma Sp2/0 cell line (Mudgett-Hunter, M., et al. J. Immunol., 129:1165–1172 (1982)). Hybridoma cells identified by radioimmunoassay (RIA) as secreting anti-digoxin antibody were cloned and grown in tissue culture and amplified in the ascites form in mice. Digoxin specific hybridoma proteins were purified from ascites by a variety of chromatographic methods, including ion-exchange chromatography on DEAE cellulose and affinity chromatography on Digoxin-BSA-Sepharose or ouabain-amine Sepharose.

For assay [2], the system named is Na+-K+-ATPase pump activity in human erythrocytes. Briefly: standard human erythrocyte 86Rb+ uptake assay. The settings on record: RBC 86Rb+ uptake assay. It is filed as cell-based.
Description: As defined herein, purified HIF refers to HIF which is substantially free of or isolated from other tissue or fluid protein components and contaminants. In addition, the purified HIF of the present invention has at least 40% activity recovery. Preferably, the purified HIF has about 50–75% activity recovery, more preferably the purified HIF has about 75–90% activity recovery and most preferably, the purified HIF has about 90–95% activity recovery. As defined herein, “activity recovery” of HIF is the activity of HIF as measured indirectly by, for example a biological assay such as specific inhibition of Na^+-K^+-ATPase pump activity in human erythrocytes, or as measured directly, for example, by UV absorbance following HPLC chromatography.
as §1

The target in the next assay is purified Na, K-ATPase. The settings on record: Haupert et al. 1984; read-out: affinity constant for binding to purified Na, K-ATPase; cited from earlier work.

T1 sequence (P01631 whole entry, the tested form may be a part): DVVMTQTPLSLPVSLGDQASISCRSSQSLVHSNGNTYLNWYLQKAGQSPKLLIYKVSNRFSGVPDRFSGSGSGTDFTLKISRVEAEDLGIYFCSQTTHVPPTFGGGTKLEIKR

As to `C[C@@H]1O[C@@H](O[C@H]2C[C@@H](O)[C@]3(CO)[C@H]4[C@H](O)C[C@]5(C)[C@@H](C6=CC(=O)OC6)CC[C@]5(O)[C@@H]4CC[C@]3(O)C2)[C@H](O)[C@H](O)[C@H]1O` [ouabain], the IC50 (as a rule, the concentration that inhibits the measured activity by half) in assay [1] stood at 300 nM. Also, the “amount equal to 1 U (1 U=50% inhibition under standard conditions)” value in assay [2] is “approximately 0.75 pmol”. For the same compound, at purified Na, K-ATPase, the Kd was roughly 1 nM.
